Experimental data published in publication PMC10889512, “Pyrimidine Schiff Bases: Synthesis, Structural Characterization and Recent Studies on Biological Activities” (International Journal of Molecular Sciences, 2024).

Key:
[1] = test system: A. baumannii 19606; assay: Antimicrobial activity assay, microdilution; format: cell-based, Acinetobacter baumannii; details: concentration range from 0.5 µg/mL to 256 µg/mL
Experimental: (§1) In vitro antimicrobial and antifungal activity was screened using microdilution and modified Richard’s medium. The assay was performed for compounds 4a, 4b, 4c, and 4d with seven reference microbial strains from ATTC (E. coli 25922, S. aureus 43300, K. pneumoniae 700603, A. baumannii 19606, P. aeruginosa 27853, E. faecalis 29212, and C. albicans 10231).
(§2) Seven reference strains from the ATCC collection (Escherichia coli 25922, Staphylococcus aureus 43300, Klebsiella pneumoniae 13883, Acinetobacter baumannii 19606, Pseudomonas aeruginosa 27853, Enterococcus faecalis 29212, and Candida albicans 10231) were used. The assay was performed according to a modified version of Richard et al.’s protocol and ISO standards 20776-1:2019 and 16256:2021 [78, 79]. Microdilution with spectrophotometric measurement was used to calculate MIC50 (minimal inhibitory concentration which decreased the microorganisms’ viability to 50%) values. Briefly, compounds were prepared 100× concentrated in DMSO, and during the whole experiment, they were diluted to 1× with TSB. Serial dilutions of tested compounds were made directly on plates at a concentration range of 0.5 to 256 µg/mL. Microorganisms were incubated for 24 h at 37 °C (bacteria) or 25 °C (yeast) on Petri dishes with TSA. The bacteria/yeast suspensions were prepared at a density 5 × 10^5 CFU/mL (for bacteria) or 0.5–2.5 × 10^5 CFU/mL (for yeast) with TSB. Also, appropriate controls were contained in the experiment: the positive control consisted of a specific strain in TSB, and the negative control was TSB alone. To ensure that used strains were not modified and were still responding to antibacterial/antifungal compounds established by EUCAST, additional tests were conducted with levofloxacin, gentamicin, and amphotericin B. Microplates were incubated on a shaker for 24 h at 37 ± 1 °C or 25 ± 1 °C for the bacteria and yeast strains, respectively. After the incubation, spectrophotometric measurement was performed at 580 nm. MIC50 was calculated by comparing the results obtained for experimental sets with positive controls. Next, 50 µL aliquots of 1% (m/v) TTC solution were added to each well. The plates were incubated on the shaker for 24 h at 37/25 °C. In living microbial cells, colourless TTC is converted into red formazan crystals, which allows for visual observation and MBC/MFC (minimal bactericidal/fungicidal concentration) value assessment.

[2] = test system: AGS cells; assay: Flow cytometry annexin V/PI staining, cell death pathway, AGS; format: cell-based, human; details: at IC50, 6, 18 and 24 h
Experimental: To confirm the cell death pathway, another approach to flow cytometry was used. […] Annexin V is a specific PS-binding protein, and thus it is used to detect apoptotic cells. Very few events could be observed in the first and the second quadrant, which represent apoptotic cells. Most events occurred in the third and the fourth quadrant, where unstained and necrotic cells were located. The 24 h measurements after both flow cytometry approaches were consistent with each other. […] Two approaches for flow cytometry were used—FDA/PI staining to determine cell viability and annexin V/PI staining for cell death pathway determination. For cell death pathway determination, cells were plated in 6-well plates at a density of 3 × 10^5 cells/well. […] After 6, 18, and 24 h incubation, adhered and floating cells were harvested, centrifuged at 1600 rpm, and washed with PBS. Next, the cells were washed with 1× annexin-binding buffer, and after centrifugation, cells from each test set were suspended in 100 µL of 1× annexin-binding buffer. To each tube, 5 µL of Alexa Fluor 488-annexin V stain was added, and the cells were incubated in the dark. After 15 min incubation, the cells were centrifuged at 1600 rpm to remove the dye, then suspended in 1 mL of 1× binding buffer and kept on ice. Prior to analysis, cells were stained for 2 min with 1 µM PI. […]

[3] = test system: CaCo-2; assay: Neutral red uptake assay on CaCo-2; format: cell-based; details: Homo sapiens; CaCo-2, 72 h treatment
Experimental: (§3) Based on the results obtained for the RPTEC cell line, the following concentrations of 4b–d were chosen to be applied to neoplastic cell lines: 0.1, 1, 10, 25, 50, and 100 µM. A172, AGS, CaCo-2, HeLa, and HepG2 cancer cell lines were used to perform a neutral red uptake assay. The obtained results were compared with a negative control (cell lines incubated without tested compounds), and half-maximal inhibitory concentration (IC50) values were calculated. Cell lines were plated in 96-well plates at a density of 1 × 10^4 cells/well. After 24 h incubation, which allowed the cells to attach and start to proliferate, the culture media were replaced with 4a–d dissolved in the appropriate medium at concentrations of 1, 10, 50, 100, 150 and 200 µM. […] Negative (1% DMSO in medium) and positive (1 µM staurosporine) controls were also included. Plates were incubated at 37 °C for 24, 48, and 72 h before the neutral red uptake assay. The neutral red uptake assay was performed as described by Repetto et al.. Briefly, the medium from all wells was discarded, the attached cells were washed with 100 µL PBS, and then 100 µL of neutral red working solution in medium (40 µg/mL) was added to each well. The neutral red solution was incubated overnight in the same conditions as the cells and centrifuged before being added to the cells. The plates were incubated for at least 2 h at 37 °C, 5% CO2, in a humidified atmosphere. Next, the neutral red medium was removed, and the cells were washed with 100 µL PBS. A 100 µL quantity of destain solution consisting of 50% ethanol, 1% glacial acetic acid, and deionized water was added to each well. Plates were incubated for 30 min with constant shaking on a horizontal shaker at 37 °C. Absorption was measured at 540 nm excitation. The cells’ viability was calculated by comparing results from experimental sets with negative controls according to the formula: % viability=ODtest substance−ODblind/ODnegative control−ODblind×100

[4] = test system: P. aeruginosa 27853; assay: Antimicrobial activity assay, microdilution; format: cell-based, Pseudomonas aeruginosa; details: concentration range from 0.5 µg/mL to 256 µg/mL
Experimental: as §1, §2

[5] = test system: E. faecalis 29212; assay: Antimicrobial activity assay, microdilution; format: cell-based, Enterococcus faecalis; details: concentration range from 0.5 µg/mL to 256 µg/mL
Experimental: as §1, §2

[6] = test system: HepG2; assay: Neutral red uptake assay on HepG2; format: cell-based; details: Homo sapiens; HepG2, 72 h treatment
Experimental: as §3

[7] = test system: C. albicans 10231; assay: Antifungal activity assay, microdilution; format: cell-based, Candida albicans; details: concentration range from 0.5 µg/mL to 256 µg/mL
Experimental: as §1, §2

In the case of `Cc1nc(-c2ccccc2)nc(Nc2ccc(F)cc2)c1C=Nc1cccc(Cl)c1` [compound 4b, 5-{[(3-chlorophenyl)imino]methyl}-N-(4-fluorophenyl)-6-methyl-2-phenylpyrimidin-4-amine], the “MIC and MBC/MFC activity” value [1] is reported as “Neither MIC nor MBC/MFC activity was observed”, the cell death pathway [2] is reported as “irreversible cell injury and necrosis” and the IC50 [3] is reported as greater than 100 µM. The “MIC and MBC/MFC activity” value [4] was “Neither MIC nor MBC/MFC activity was observed”, the “MIC and MBC/MFC activity” value [5] was “Neither MIC nor MBC/MFC activity was observed” and the IC50 [6] was greater than 100 µM. The “MIC and MBC/MFC activity” value [7] was “Neither MIC nor MBC/MFC activity was observed”.
